What was measured:
hsst5 = molecular target: T1, hsst5 (Homo sapiens, UniProt P35346); test: Somatostatin receptor radioligand binding assay, hsst5; conditions: hsst5 Ki, CHO-K1 membranes, [125I-Tyr11]SS-14
T1 construct: expressed in transfected cells
Outline: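 Membranes from CHO-K1 cells stably expressing hsst5, incubated 90 min at 25 °C with 0.05 nM [125I-Tyr11]SS-14 in 50 mM HEPES pH 7.4 with BSA, MgCl2 and protease inhibitors. Bound ligand collected by filtration. Non-specific binding defined with 1000 nM SS-14.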

hsst1 = molecular target: T2, hsst1 (Homo sapiens, UniProt P30872); test: Somatostatin receptor radioligand binding assay, hsst1
T2 construct: expressed in transfected cells
Outline: (§1)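 Membranes from CHO-K1 cells stably transfected with each human SSTR subtype, incubated 90 min at 25 °C with 0.05 nM [125I-Tyr11]SS-14 in 50 mM HEPES pH 7.4 with BSA, MgCl2 and protease inhibitors; filtration read-out. Nonspecific binding with 1000 nM SS-14; Ki values reported.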

sst2-D2 = molecular target: T3, sst2-D2 (Homo sapiens, UniProt P14416+P30874); test: cAMP Responsive Element-Luciferase reporter gene assay, sst2-D2 co-transfected HEK-293 cells; assay type: cell-based; conditions: read-out: IC50 value of cAMP inhibition
T3 construct: expressed in transfected cells; host or cells: HEK-293, transient co-transfection
Description: (§2) A cAMP Responsive Element-Luciferase reporter gene assay in HEK-293 cells was used in this assay, wherein said HEK-293 cells were transiently transfected with D2 and/or sst2 cDNA. […] In sst2-monotransfected cells, the IC50 value of cAMP inhibition of Example 1 was 0.04 nM.

hsst2 = molecular target: T4, hsst2 (Homo sapiens, UniProt P30874); test: Somatostatin receptor radioligand binding assay, hsst2; conditions: CHO-K1 membranes, [125I]MK-678; read-out: hsst2 Ki
T4 construct: expressed in transfected cells
Outline: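 Membranes from CHO-K1 cells stably expressing human SSTR2, in 10 mM Tris-HCl, incubated 90 min at 25 °C with 0.05 nM [125I]MK-678. Bound ligand collected by filtration on PEI-soaked GF/C filters; nonspecific binding defined with 1000 nM MK-678.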

hsst3 = molecular target: T5, hsst3 (Homo sapiens, UniProt P32745); test: Somatostatin receptor radioligand binding assay, hsst3
T5 construct: expressed in transfected cells
Outline: as §1

D2 = molecular target: T6, D2 (Homo sapiens, UniProt P14416); test: cAMP Responsive Element-Luciferase reporter gene assay, D2-monotransfected HEK-293 cells; assay type: cell-based; conditions: read-out: IC50 value of cAMP inhibition
T6 construct: expressed in transfected cells; host or cells: HEK-293, transient
Description: as §2

T1 sequence (P35346 whole entry): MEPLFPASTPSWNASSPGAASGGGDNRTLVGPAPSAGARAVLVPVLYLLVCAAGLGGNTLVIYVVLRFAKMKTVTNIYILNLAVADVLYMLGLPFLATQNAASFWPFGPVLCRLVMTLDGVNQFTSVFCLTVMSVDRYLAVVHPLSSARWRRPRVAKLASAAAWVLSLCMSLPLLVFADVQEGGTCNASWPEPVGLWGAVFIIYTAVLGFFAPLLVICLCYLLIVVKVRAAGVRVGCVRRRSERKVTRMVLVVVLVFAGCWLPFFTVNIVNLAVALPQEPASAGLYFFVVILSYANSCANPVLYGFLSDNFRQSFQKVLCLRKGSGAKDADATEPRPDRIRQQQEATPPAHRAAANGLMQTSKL
T6 sequence (P14416 whole entry): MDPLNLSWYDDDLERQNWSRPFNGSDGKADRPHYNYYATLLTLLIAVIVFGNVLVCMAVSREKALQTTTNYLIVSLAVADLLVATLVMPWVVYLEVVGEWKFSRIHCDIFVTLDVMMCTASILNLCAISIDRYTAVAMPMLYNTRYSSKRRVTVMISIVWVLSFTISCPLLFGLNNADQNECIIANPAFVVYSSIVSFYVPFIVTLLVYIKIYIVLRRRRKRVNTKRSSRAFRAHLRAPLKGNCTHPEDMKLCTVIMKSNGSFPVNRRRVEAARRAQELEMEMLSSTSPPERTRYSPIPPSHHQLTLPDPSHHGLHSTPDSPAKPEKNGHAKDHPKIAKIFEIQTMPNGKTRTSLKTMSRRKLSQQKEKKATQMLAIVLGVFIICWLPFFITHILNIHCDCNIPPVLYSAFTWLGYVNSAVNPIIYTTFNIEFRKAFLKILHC
T2 sequence (P30872 whole entry): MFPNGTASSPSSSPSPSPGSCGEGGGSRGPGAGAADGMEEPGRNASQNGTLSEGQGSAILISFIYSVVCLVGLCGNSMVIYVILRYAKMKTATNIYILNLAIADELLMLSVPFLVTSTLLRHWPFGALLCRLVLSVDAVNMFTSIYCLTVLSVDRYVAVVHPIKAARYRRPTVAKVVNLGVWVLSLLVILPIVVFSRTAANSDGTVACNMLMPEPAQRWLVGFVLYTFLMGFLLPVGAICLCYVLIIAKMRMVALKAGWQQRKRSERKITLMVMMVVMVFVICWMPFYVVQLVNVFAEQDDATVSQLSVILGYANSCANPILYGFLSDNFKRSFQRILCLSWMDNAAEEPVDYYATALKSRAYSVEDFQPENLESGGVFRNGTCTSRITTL
T3 sequence (P30874 whole entry): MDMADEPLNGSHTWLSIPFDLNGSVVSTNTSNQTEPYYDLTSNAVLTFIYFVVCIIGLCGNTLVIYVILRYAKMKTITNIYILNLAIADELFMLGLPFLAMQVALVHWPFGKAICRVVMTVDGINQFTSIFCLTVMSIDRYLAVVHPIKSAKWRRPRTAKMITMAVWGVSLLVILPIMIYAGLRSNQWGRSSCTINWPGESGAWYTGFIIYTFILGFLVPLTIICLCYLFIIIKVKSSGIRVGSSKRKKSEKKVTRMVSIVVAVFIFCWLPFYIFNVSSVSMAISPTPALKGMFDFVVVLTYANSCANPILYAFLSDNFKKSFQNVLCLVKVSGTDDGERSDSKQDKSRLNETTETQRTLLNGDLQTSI
T3 sequence (P14416 whole entry): as the sequence (P14416 whole entry) above
T4 sequence (P30874 whole entry): as the sequence (P30874 whole entry) above
T5 sequence (P32745 whole entry): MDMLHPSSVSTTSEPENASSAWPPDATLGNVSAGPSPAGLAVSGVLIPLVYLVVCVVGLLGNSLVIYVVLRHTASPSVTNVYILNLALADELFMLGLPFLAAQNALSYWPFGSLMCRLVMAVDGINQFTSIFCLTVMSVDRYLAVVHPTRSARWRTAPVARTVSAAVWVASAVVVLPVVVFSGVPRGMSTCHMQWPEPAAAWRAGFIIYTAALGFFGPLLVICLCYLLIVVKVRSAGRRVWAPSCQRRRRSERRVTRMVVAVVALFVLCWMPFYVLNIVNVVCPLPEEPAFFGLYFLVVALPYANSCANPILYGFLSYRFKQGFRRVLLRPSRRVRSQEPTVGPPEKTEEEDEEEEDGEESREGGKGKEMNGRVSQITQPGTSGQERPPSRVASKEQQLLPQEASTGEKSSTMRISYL

Q: For CCCN1C[C@H](CSCC(=O)NCCCC[C@@H](NC(=O)CSC[C@@H]2C[C@@H]3c4cccc5[nH]cc(c45)C[C@H]3N(CCC)C2)C(=O)N[C@H]2CSSC[C@@H](C(=O)N[C@H](C(N)=O)[C@@H](C)O)NC(=O)[C@H](CC)NC(=O)[C@H](CCCCN)NC(=O)[C@@H](Cc3c[nH]c4ccccc34)NC(=O)[C@H](Cc3ccc(O)cc3)NC2=O)C[C@@H]2c3cccc4[nH]cc(c34)C[C@H]21 [Example 1, Dop2-DLys(Dop2)-cyclo[Cys-Tyr-DTrp-Lys-Abu-Cys]-Thr-NH2], which Ki (hsst5) is on record?
A: 41.5 nM

Q: And the Ki (hsst1)?
A: 843 nM

Q: What about the IC50 (sst2-D2) of the same compound?
A: 0.02 nM

Q: And the Ki (hsst2)?
A: 0.03 nM

Q: What about the Ki (hsst3) of the same compound?
A: 160 nM

Q: What about the IC50 (D2) of the same compound?
A: 0.02 nM
